Results published in patent US12270016B1, “Structure and function of modular microfluidic device for in-vitro modeling of human organs” (Alfaisal University, priority 2024, dated 2025).

How the values were obtained:
[1] = system: differentiated adipocytes; assay: Glucose uptake by the adipocytes (2-NBDG glucose uptake assay kit) in microfluidic device; format: cell-based, human
Procedure: (§1) Cell Culture: In vitro model of the human inflamed adipose tissue (adipocyte/immune cell coculture): Prior to seeding the cells into the microfluidic device, the fluidic compartments underwent a sterilization process by filling them with 70% ethanol for a minimum of 4 hours. Afterward, the microfluidic devices were washed with deionized water, and each microfluidic device was loaded with 100 μL of Poly-L-lysine solution (0.1 mg/mL in H2O) and incubated overnight at 37° C. The microfluidic devices were then washed again, first with sterilized deionized water and then with phosphate-buffered saline (PBS). Next, the microfluidic devices were primed with a preadipocyte growth medium from (Cell Applications). […] Cell viability and morphological changes were monitored using a microscope. […] The concentrations of Tumor Necrosis Factor (TNFα) and Interleukin-6 (IL-6) in the supernatants were measured using an ELISA method. […] The percentage of calcein-AM-labeled cells was used to quantify cell viability. The growth and morphology of the cells were regularly monitored under the microscope. […] To assess cell differentiation of the adipocytes, the lipid content within adipocytes was monitored by staining the lipid droplets with Oil Red O (Sigma-Aldrich, St. Louis, MO, USA). […]

[2] = system: Adipocytes and U937 cells; assay: Cytokine immunoassay (ELISA) of supernatants from adipocyte/immune cell co-culture in VasChip3x2 microfluidic device; format: cell-based, human; settings: inflammation state induced with 100 ng/ml LPA
Procedure: as §1

Substance	glucose uptake ([1]; adipocyte monoculture, after insulin treatment)	cytokine secretion (TNF and IL-6 in the supernatants) [2]	glucose uptake ([1]; adipocyte/U937 co-culture, inflammation state induced with 100 ng/ml LPA)
insulin	significant glucose uptake	–	–
lysophosphatidic acid [LPA]	–	significant increase	decrease
